Data set [1] addresses cardiac L-type Ca2+ channel (hCav1.2) (Homo sapiens, UniProt Q13936). The data set is described as follows: L-type Ca2+ channel assay - ChanTest (PatchXpress, CHO cells). It is filed as cell-based. The text has this:
Selected compounds were screened for block of the cardiac L-type Ca^2+ channel (hCav1.2, encoded by the human CACNA1C gene and coexpressed with the beta 2 subunit, encoded by the human CACNB2 gene and alpha2delta1, encoded by the CACNA2D1 gene). The Ca^2+ channel is heterologously expressed in a CHO (Chinese Hamster Ovary) cell line. Cells are maintained following standard tissue culture procedures and stable channel expression is maintained with appropriate selection antibiotics in the culture medium. Cells are harvested for testing on the PatchXpress automated patch clamp (Model 7000A, Molecular Devices, Sunnyvale, Calif.) by washing twice with Hank's Balanced Salt Solution, treating the cells with trypsin and re-suspending cells in culture medium (4-6×10^6 cells in 20 mL). Cells in suspension are allowed to recover for 10 minutes in a tissue culture incubator set at 37° C. in a humidified 95% air, 5% CO2 atmosphere.
The following solutions are used for electrophysiological recordings. The external solution contains (mM): 137 NaCl, 4 KCl, 1.8 CaCl2, 1 MgCl2, 10 Glucose, 10 HEPES (pH 7.4 with NaOH). The internal solution contains (mM): 130 Cs Aspartate, 5 MgCl2, 10 EGTA, 4 ATP, 0.5 GTP, 10 HEPES, (pH adjusted to 7.2 with N-methyl-D-glucamine).
Vehicle is applied to naive cells (n≧2, where n=the number cells), for a 5-10 minute exposure interval. Each solution exchange is performed in quadruplicate. At the end of each experiment, a saturating concentration of nifedipine (10 μM) is added to block hCav1.2 current. Leak current is digitally subtracted from the total membrane current record.
Test compound stock solutions are prepared by addition of dimethyl sulfoxide (DMSO) and stored frozen. Each test compound DMSO stock is sonicated (Model 2510/5510, Branson Ultrasonics, Danbury, Conn.), at ambient room temperature for at least 20 minutes to facilitate dissolution. Test compound concentrations are prepared fresh daily by diluting stock solutions into the standard extracellular physiological saline solution (see above). The maximum percent of DMSO added with compound is 0.1%. All test compound and control solutions are placed in a glass-lined 96-well compound plate before loading on PatchXpress.
Two concentrations (1, 10 μM) of each test compound are applied at five (5) minute intervals via disposable polyethylene micropipette tips to naïve cells (n≧2, where n=the number cells/concentration). Each test compound concentration is added to the cell in quadruplicate. […]
Onset and steady state block of hCav1.2 (α1C/β2/α2δ[…] channels is measured using a stimulus voltage pattern consisting of a depolarizing test pulse (duration, 200 ms; amplitude, 10 mV) at 10 s intervals from a −80 mV holding potential. Peak current is measured during a step to 10 mV.

The target in data set [2] is hNav 1.8 sodium channel isoform (Homo sapiens, UniProt Q9Y5Y9). The data set is described as follows: hNav1.8 sodium channel block. It counts as cell-based. An excerpt: Compounds of this disclosure that block cardiac late INa may also mediate UDB of other Na^+ channel isoforms including the major Na^+ channel isoforms in peripheral nervous system pain fibers, NaV1.7 and 1.8. Compounds of this disclosure that block these channels may also be useful to decrease neuropathic pain.
The inhibition of either hNav 1.7 and hNav 1.8 isoforms or the inhibition of both channels when stimulated at these frequencies support the use of compounds of this disclosure to decrease neuropathic pain.

Data set [3] concerns Female New Zealand rabbits. The data set is described as follows: Ischemia-induced ST segment elevation in anesthetized rabbits. It counts as in vivo, rabbit. How it is done:
This study was undertaken to determine the anti-ischemic effects of compounds of the present disclosure in an in vivo rabbit model.
Female New Zealand rabbits (3.0-4.0 kg) were purchased from Western Oregon Rabbitry. Animals were housed on a 12-h light and dark cycle and received standard laboratory chow and water. All experiments were performed in accordance with the Guide for the Care and Use of Laboratory Animals published by The National Research Council and with the experimental protocol approved by the Institutional Animal Care Committee of Gilead Sciences, Inc.
Rabbits were anesthetized with ketamine (35 mg/kg) and xylazine (5 mg/kg) intramuscular injection (im). A tracheotomy was performed and the trachea was intubated with an endotracheal tube. The animal was ventilated with room air supplemented with oxygen using a pressure control animal ventilator (Kent Scientific Corp., Torrington, Conn.) at a respiratory rate of 40 strokes/min and peak inspiration pressure of 10 mmH2O, which was adjusted to keep blood gases and pH within the physiological range (iSTAT clinic analyzer, Heska Corp.; Waukesha, Wis.). The left femoral artery was cannulated for the measurement of blood pressure (BP). Blood samples were also withdrawn from femoral artery. The right external jugular vein was cannulated for drug/vehicle administration. Needle electrodes were inserted subcutaneously into the limbs for recording of the surface electrocardiogram (ECG). The heart was exposed via an incision in the 4th intercostal space (4th and/or 5th ribs were cut for a clear surgical vision). The chest was opened and a pericardial cradle was formed using 4 retractors. A coronary artery occluder, comprised of a snare made of 5 cm PE-10 tubing with a 6-0 Prolene polypropylene suture in it, was placed loosely around the left anterior descending artery (LAD) at its origin. Two unipolar electrodes, made with teflon coated silver wire attached to a small patch of filter paper, were attached on the surface of the ischemic and normal regions of the left ventricle to record epicardial electrocardiogram. Reference electrodes were placed in the open incision of the neck. The body temperature of the animal was monitored via a rectal thermometer and maintained at 37-40° C. by adjusting the surface temperature of the surgical table. Regional ischemia (15 min) was induced by ligating the LAD followed by 15 min of reperfusion caused by releasing the ligation. The heart was excised at the end of the experiment and the LAD was re-ligated. The ischemic area was visualized by perfusing the heart with 1% Evans blue in saline and calculated as a percentage of total ventricular weight. Rabbits with ischemic area less than 10% or larger than 25% were excluded from the analysis. Animals were randomly assigned to vehicle and test compound groups. Test compounds was dissolved in 5% NMP, 30% PG, 45% PEG 400 and 20% de-ionized water (dH2O). Test compound was given as an iv bolus at 0.1, 0.2 and 0.4 mg/kg. After 30 min of dosing, the heart was subjected to 15 min of ischemia followed by 15 min of reperfusion.

Sequence of cardiac L-type Ca2+ channel (hCav1.2) (Q13936 whole entry): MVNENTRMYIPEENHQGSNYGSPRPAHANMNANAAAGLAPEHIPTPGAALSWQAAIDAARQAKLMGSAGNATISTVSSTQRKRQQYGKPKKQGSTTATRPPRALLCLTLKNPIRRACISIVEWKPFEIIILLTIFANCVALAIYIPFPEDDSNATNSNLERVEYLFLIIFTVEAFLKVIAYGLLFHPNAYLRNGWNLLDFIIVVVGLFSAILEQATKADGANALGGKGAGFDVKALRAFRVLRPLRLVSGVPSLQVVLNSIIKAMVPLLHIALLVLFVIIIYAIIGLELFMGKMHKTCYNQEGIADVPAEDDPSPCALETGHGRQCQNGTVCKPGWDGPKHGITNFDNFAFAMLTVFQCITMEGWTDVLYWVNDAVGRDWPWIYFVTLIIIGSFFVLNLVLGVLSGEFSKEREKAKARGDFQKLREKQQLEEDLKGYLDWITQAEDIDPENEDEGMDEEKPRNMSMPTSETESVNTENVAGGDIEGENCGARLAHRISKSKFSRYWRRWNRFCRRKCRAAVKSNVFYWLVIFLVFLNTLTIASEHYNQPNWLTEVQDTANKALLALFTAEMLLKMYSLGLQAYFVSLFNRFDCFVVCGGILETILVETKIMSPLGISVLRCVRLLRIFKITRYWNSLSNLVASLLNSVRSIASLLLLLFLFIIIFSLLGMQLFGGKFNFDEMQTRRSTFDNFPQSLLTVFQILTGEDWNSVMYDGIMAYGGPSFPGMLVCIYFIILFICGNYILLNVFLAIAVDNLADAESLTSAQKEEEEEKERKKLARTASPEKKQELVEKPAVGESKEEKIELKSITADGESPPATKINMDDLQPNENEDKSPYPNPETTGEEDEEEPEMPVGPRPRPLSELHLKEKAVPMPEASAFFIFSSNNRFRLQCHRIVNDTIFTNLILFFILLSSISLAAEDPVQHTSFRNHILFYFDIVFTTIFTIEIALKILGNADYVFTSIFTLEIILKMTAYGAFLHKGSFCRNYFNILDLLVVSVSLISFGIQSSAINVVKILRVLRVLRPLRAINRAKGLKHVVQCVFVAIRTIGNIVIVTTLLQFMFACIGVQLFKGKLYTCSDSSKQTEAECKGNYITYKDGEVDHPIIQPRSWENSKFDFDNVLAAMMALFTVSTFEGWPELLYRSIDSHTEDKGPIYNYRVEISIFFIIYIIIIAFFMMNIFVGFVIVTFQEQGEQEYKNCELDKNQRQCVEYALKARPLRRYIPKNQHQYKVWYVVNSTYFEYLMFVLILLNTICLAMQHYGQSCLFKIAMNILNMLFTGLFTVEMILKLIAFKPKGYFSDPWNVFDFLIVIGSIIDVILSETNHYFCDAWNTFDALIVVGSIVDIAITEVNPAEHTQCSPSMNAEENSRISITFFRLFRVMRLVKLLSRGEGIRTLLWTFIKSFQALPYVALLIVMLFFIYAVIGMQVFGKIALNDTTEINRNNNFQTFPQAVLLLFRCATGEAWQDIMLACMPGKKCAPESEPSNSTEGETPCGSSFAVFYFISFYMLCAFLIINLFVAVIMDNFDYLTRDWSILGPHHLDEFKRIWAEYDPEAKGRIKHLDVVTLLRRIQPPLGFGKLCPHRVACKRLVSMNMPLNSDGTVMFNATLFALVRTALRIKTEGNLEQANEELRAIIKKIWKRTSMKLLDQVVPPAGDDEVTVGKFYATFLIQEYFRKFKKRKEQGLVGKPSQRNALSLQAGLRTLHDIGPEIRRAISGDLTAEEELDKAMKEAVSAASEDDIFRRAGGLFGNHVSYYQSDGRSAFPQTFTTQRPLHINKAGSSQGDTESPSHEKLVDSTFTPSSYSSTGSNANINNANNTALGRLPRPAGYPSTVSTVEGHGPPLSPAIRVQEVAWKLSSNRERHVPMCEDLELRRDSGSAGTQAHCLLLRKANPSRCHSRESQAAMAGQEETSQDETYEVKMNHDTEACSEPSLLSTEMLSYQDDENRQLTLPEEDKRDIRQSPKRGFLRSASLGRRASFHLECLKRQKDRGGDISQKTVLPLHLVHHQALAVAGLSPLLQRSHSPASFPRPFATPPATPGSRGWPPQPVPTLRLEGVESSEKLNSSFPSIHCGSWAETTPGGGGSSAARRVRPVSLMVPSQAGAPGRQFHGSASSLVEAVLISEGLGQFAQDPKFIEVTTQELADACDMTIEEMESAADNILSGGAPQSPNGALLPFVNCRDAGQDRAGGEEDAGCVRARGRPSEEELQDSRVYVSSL
Sequence of cardiac L-type Ca2+ channel (hCav1.2) (Q08289 whole entry partner): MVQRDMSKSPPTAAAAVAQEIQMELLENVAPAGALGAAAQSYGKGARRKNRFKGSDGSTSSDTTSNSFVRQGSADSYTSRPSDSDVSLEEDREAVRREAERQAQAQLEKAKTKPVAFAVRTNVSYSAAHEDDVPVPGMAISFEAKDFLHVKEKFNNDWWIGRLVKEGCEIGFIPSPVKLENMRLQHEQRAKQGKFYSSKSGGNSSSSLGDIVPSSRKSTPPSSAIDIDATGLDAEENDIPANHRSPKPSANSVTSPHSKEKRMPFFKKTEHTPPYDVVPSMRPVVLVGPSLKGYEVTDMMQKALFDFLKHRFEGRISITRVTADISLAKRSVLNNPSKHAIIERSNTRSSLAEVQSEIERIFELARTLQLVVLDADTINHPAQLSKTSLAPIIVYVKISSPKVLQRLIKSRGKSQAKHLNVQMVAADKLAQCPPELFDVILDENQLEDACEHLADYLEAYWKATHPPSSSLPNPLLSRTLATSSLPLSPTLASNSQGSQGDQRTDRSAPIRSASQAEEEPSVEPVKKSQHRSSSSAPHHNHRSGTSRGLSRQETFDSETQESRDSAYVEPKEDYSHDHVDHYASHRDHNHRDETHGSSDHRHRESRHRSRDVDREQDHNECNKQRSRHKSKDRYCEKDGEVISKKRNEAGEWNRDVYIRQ
Sequence of cardiac L-type Ca2+ channel (hCav1.2) (P54289 25-956 partner limits assumed): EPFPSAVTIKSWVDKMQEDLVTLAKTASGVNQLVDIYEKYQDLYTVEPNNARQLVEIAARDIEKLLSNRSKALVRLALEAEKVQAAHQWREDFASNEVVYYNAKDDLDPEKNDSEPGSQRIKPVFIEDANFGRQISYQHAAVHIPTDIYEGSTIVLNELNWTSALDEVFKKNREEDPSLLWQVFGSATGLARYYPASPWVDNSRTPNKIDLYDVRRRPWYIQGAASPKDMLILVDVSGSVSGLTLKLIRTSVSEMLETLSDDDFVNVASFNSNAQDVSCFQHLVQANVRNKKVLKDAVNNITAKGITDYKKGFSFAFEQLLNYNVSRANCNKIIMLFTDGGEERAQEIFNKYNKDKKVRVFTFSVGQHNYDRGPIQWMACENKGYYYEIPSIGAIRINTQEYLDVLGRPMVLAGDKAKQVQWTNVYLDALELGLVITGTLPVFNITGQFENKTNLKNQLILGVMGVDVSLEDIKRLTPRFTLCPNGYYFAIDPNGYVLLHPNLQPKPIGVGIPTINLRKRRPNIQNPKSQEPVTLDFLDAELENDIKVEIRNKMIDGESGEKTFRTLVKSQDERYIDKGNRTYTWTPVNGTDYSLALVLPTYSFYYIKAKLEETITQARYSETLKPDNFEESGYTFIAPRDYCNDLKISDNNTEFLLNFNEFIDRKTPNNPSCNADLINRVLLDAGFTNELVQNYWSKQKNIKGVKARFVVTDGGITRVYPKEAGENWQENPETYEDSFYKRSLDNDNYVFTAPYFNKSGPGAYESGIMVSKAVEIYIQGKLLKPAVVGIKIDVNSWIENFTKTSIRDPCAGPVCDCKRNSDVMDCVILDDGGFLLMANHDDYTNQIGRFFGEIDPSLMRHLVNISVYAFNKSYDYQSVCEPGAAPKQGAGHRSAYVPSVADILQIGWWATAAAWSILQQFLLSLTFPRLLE
Sequence of cardiac L-type Ca2+ channel (hCav1.2) (P54289 957-1103 partner limits assumed): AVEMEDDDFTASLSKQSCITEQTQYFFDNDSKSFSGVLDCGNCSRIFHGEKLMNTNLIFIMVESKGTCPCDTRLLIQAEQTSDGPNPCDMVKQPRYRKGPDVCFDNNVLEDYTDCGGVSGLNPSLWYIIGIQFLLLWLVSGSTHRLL

As usually defined, the IC50 is the midpoint of a concentration-inhibition curve. Consider `O=C1c2cc(-c3ccc(OC(F)(F)F)cc3)ccc2OCCN1Cc1ncccn1` [II-73, 4-(pyrimidin-2-ylmethyl)-7-(4-(trifluoromethoxy)phenyl)-3,4-dihydrobenzo[f][1,4]oxazepin-5(2H)-one], for which the entries for the “blocked the hCav1.2 late current” value in data set [1] (1 μM concentration) and in data set [1] (10 μM concentration) were 14% and 47%, respectively. In addition, the “blocked the hCav1.2 peak current” value in data set [1] (1 μM concentration) amounted to 32%; in data set [1] (10 μM concentration), 79%. Further, the half-maximal inhibitory concentration (IC50) in data set [2] (10 Hz frequency) is above 10000 nM; in data set [2] (frequency of 25 Hz) it was 1500 nM. The “area under curve (AUC) for the ST segment height reduced (vs. control)” value in data set [3] (0.5 μM plasma concentration, iv bolus, 15 min ischemia) was determined as 93%. Also, in data set [3] (at the plasma concentration levels studied), the “effect on blood pressure (BP), heart rate (HR) and ECG intervals prior to the ischemia” value is “no significant effect”. In addition, the “ischemia-induced ST elevation” value in data set [3] (iv bolus 30 min before 15 min ischemia) was “dose-dependently prevented”.

(Values after US9676760B2, “Fused heterocyclic compounds as ion channel modulators” (Gilead Sciences, Inc., priority 2011, dated 2017).)
